From patent US12264156B2, “Compounds and pharmaceutical compositions thereof for the treatment of diseases” (GALAPAGOS NV, priority 2018, dated 2025) come the findings set out here.

Usually IC50 stands for the concentration needed to halve the response being measured.

Structures are written as SMILES.

Type in all cases: biochemical
Common to all, as to settings: ADP-Glo SIK kinase assay
(In general: In ADP-Glo the light output rises with the ADP produced.)

One experiment deals with T1, SIK3 (Homo sapiens, UniProt Q9Y2K2).
T1 construct: purchased SignalChem S12-11G-100
T1 sequence (Q9Y2K2 whole entry): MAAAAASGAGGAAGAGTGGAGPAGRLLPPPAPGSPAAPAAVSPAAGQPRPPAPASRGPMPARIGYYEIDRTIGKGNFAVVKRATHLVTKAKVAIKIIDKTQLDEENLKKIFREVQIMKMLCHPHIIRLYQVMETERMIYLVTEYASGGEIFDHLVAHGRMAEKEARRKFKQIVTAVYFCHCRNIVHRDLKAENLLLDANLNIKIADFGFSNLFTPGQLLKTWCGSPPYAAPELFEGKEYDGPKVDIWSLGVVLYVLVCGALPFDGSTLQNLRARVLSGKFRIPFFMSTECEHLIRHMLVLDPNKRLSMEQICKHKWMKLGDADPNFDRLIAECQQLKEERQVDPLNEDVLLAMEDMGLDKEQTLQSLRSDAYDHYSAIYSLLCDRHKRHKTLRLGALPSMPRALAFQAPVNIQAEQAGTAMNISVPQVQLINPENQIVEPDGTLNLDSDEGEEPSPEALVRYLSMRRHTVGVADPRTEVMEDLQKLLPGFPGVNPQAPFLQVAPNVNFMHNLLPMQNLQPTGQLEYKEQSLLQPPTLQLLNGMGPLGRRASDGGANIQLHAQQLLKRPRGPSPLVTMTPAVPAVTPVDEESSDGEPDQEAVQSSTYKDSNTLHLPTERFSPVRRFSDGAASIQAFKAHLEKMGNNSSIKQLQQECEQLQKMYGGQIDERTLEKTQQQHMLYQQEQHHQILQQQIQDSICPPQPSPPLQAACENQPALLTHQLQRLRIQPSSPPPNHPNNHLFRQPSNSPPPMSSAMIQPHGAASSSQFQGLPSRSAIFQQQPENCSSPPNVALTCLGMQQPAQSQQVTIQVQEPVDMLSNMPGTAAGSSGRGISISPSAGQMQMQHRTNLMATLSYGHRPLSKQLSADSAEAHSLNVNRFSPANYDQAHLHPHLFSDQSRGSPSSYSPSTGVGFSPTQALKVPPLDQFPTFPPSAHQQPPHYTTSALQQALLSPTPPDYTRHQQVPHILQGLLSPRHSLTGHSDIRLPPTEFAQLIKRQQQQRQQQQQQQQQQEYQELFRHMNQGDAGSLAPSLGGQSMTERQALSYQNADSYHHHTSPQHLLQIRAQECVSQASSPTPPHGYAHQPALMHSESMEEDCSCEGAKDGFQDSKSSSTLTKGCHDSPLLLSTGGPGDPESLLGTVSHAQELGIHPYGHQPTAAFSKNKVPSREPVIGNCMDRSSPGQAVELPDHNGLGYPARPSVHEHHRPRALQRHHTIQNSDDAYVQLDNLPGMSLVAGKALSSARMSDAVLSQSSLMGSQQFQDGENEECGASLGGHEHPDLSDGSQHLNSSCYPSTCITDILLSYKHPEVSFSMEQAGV
Description: ADP-Glo kinase assay, SIK3. As to the method: (§1) The ADP-Glo™ kinase assay is a luminescent technology assay which measures the ADP formed from a kinase reaction. […] In a second step the kinase reactions are terminated and all the remaining ATP is depleted. In a final step the ADP is converted into ATP and this newly synthesized ATP is measured by using a luciferase/luciferin reaction. The generated light is measured using an Envision plate reader, wherein the luminescent signal obtained positively correlates with the kinase activity.
(§2) 1% DMSO and 10 μM staurosporine final concentrations are used as negative and positive controls.
(§3) 2 μL enzyme-substrate mixture is added to the assay plates.
(§4) The reaction is started by adding 2 μL diluted ATP on the assay plates. Plates are centrifuged for a few seconds at 1000 rpm and gently shaken for 2 min followed by an incubation at RT for 120 min.
(§5) The reactions are stopped and the unconsumed ATP is depleted by adding 5 μL ADP-Glo Reagent (Promega, Cat #V912B) to the reaction. The plates are centrifuged for a few seconds at 1000 rpm and incubated at RT for 40 min (ATP depletion).
(§6) The ADP is converted to ATP and luciferase and luciferin is introduced to detect ATP by adding 10 μL Kinase Detection Reagent (Promega, Cat #V913B+V914B) to the reaction. The plates are centrifuged for a few seconds at 1000 rpm and incubated at RT for 30 min (ADP detection).
(§7) Luminescence is measured on an Envision plate reader (PerkinElmer Inc.).

A further experiment addresses T2, SIK1 (Homo sapiens, UniProt P57059).
T2 construct: purchased Carna Biosciences 02-131
Description: ADP-Glo kinase assay, SIK1. As to the method:
as §1, §2, §3, §4, §5, §6, §7

In another experiment the target is T3, SIK2 (Homo sapiens, UniProt Q9H0K1).
T3 construct: purchased ThermoFisher Scientific PV4792
T3 sequence (Q9H0K1 whole entry): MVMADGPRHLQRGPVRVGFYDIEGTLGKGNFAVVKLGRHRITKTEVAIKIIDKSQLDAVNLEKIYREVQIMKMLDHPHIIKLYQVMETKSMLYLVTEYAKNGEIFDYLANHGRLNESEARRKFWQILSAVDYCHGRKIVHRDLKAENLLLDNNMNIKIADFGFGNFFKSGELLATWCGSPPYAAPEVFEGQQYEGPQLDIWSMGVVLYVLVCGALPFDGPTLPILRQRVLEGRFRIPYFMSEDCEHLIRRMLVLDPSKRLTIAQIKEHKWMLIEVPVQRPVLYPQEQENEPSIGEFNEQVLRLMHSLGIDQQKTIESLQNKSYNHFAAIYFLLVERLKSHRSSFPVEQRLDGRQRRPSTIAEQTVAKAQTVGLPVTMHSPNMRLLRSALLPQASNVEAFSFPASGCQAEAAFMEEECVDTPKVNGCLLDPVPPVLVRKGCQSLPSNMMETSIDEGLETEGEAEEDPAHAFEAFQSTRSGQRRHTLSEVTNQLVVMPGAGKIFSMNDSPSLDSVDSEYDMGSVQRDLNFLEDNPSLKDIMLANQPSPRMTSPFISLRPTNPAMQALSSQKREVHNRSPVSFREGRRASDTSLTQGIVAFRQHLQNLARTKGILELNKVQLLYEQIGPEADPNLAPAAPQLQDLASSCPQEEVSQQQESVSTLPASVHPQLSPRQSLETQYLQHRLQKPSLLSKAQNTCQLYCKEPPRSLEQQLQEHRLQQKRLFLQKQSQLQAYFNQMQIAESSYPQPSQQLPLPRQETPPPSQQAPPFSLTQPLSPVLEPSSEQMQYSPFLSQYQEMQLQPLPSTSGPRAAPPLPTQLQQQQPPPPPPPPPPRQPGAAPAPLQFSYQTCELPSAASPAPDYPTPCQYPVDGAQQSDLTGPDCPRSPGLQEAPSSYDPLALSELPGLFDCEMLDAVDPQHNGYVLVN
Description: ADP-Glo kinase assay, SIK2. As for the experimental part: as §1, §2, §3, §4, §5, §6, §7

T2 sequence (P57059 whole entry): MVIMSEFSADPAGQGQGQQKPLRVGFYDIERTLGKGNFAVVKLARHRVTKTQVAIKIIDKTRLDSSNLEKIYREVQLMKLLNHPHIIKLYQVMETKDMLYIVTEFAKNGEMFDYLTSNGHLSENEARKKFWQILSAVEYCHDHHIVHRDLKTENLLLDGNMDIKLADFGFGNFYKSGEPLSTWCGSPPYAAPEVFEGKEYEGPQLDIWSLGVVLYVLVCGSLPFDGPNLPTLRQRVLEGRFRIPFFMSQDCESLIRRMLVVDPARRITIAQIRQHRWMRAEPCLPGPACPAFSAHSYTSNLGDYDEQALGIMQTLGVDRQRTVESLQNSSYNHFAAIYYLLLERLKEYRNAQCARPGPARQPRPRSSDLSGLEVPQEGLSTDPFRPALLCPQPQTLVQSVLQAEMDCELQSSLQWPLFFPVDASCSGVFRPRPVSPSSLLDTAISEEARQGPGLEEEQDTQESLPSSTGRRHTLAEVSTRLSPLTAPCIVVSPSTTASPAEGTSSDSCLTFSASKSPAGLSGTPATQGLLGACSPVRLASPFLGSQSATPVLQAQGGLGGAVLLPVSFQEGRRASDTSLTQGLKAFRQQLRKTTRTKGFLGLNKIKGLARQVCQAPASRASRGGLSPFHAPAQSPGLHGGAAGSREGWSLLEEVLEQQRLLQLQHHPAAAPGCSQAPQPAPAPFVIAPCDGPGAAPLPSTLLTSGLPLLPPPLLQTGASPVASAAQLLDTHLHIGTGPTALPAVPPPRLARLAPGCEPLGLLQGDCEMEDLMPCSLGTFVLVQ

`COc1cc(-c2cnc3cc(OCc4ccncc4)ccn23)cc(OC(F)F)c1C(=O)NC1CC1` [compound 103, N-cyclopropyl-2-(difluoromethoxy)-6-methoxy-4-[7-(4-pyridylmethoxy)imidazo [1,2-a]pyridin-3-yl]benzamide]: the 50% inhibitory concentration (IC50) is 0.01 to 10 nM on SIK3, 10 to 100 nM against SIK1 and 0.01 to 10 nM on SIK2.

As to `COc1cc(-c2cnc3cc(OCCCN4CCn5ccnc5C4)ccn23)cc(OC(F)F)c1C(=O)NC1CC1` [compound 312, N-cyclopropyl-2-(difluoromethoxy)-4-[7-[3-(6,8-dihydro-5H-imidazo[1,2-a]pyrazin-7-yl)propoxy]imidazo[1,2-a]pyridin-3-yl]-6-methoxy-benzamide], the IC50 against SIK3 was in the range of 0.01 to 10 nM; at SIK1, 10 to 100 nM; at SIK2, 0.01 to 10 nM.

On to `COc1cc(-c2cnc3cc(OCc4cncs4)ccn23)cc(OC(F)F)c1C(=O)NC1CC1` [compound 95, N-cyclopropyl-2-(difluoromethoxy)-6-methoxy-4-[7-(thiazol-5-ylmethoxy)imidazo[1,2-a]pyridin-3-yl]benzamide], for which the IC50 against SIK3 was 0.01 to 10 nM; against SIK1 it was 10 to 100 nM; against SIK2, 0.01 to 10 nM.

`COc1cc(-c2cnc3cc(OCCN4CCOCC4)ccn23)cc2cc[nH]c(=O)c12` [compound 210, 8-methoxy-6-[7-(2-morpholinoethoxy)imidazo [1,2-a]pyridin-3-yl]-2H-isoquinolin-1-one]: the IC50 was in the range of 10 to 100 nM against SIK3, 10 to 100 nM on SIK1 and 0.01 to 10 nM against SIK2.

Take `COC(=O)[C@@H]1CN(CCOc2ccn3c(-c4cc(OC)c(C(=O)NC5CC5)c(OC(F)F)c4)cnc3c2)CCO1` [compound 389, methyl (2S)-4-[2-[3-[4-(cyclopropylcarbamoyl)-3-(difluoromethoxy)-5-methoxy-phenyl]imidazo[1,2-a]pyridin-7-yl]oxyethyl]morpholine-2-carboxylate]: the IC50 lay within 0.01 to 10 nM against SIK3, 10 to 100 nM at SIK1 and 0.01 to 10 nM at SIK2.

For the molecule `COc1cc(-c2cnc3cc(OCCNc4ccccn4)ccn23)cc(OC(F)F)c1C(=O)NC1CC1` [compound 367, N-cyclopropyl-2-(difluoromethoxy)-6-methoxy-4-[7-[2-(2-pyridylamino)ethoxy]imidazo[1,2-a]pyridin-3-yl]benzamide], the IC50 at SIK3, on SIK1 and against SIK2 was 0.01 to 10 nM throughout.

On to `CNC(C)(C)COc1ccn2c(-c3cc(OC)c(C(=O)NC4CC4)c(OC(F)F)c3)cnc2c1` [Cpd 153, N-cyclopropyl-2-(difluoromethoxy)-6-methoxy-4-[7-[2-methyl-2-(methylamino)propoxy]imidazo[1,2-a]pyridin-3-yl]benzamide], for which the values for the half-inhibitory concentration (IC50) against SIK3, on SIK1 and against SIK2 were 0.01 to 10 nM, 100 to 500 nM and 0.01 to 10 nM, respectively.

As for `COc1cc(-c2cnc3cc(OCCN(CC(F)F)C4CC4)ccn23)cc(OC(F)F)c1C(=O)NC1CC1` [compound 235, N-cyclopropyl-4-[7-[2-[cyclopropyl (2,2-difluoroethyl)amino]ethoxy]imidazo [1,2-a]pyridin-3-yl]-2-(difluoromethoxy)-6-methoxy-benzamide], the IC50 against SIK3, against SIK1 and against SIK2 was 0.01 to 10 nM each time.

For the molecule `CCOCCOc1ccn2c(-c3cc(OC)c(C(=O)NC4CC4)c(OC(F)F)c3)cnc2c1` [compound 72, N-cyclopropyl-2-(difluoromethoxy)-4-[7-(2-ethoxyethoxy)imidazo [1,2-a]pyridin-3-yl]-6-methoxy-benzamide], the IC50 against SIK3 was 0.01 to 10 nM; against SIK1 it was 10 to 100 nM; on SIK2 it was 0.01 to 10 nM.

Regarding `COc1cc(-c2cnc3cc(OCC4CCN(C)C4)ccn23)cc(OC(F)F)c1C(=O)NC1CC1` (stereo not drawn) [compound 144, N-cyclopropyl-2-(difluoromethoxy)-6-methoxy-4-[7-[(1-methylpyrrolidin-3-yl)methoxy]imidazo[1,2-a]pyridin-3-yl]benzamide], the half-maximal inhibitory concentration (IC50) is 0.01 to 10 nM against SIK3, 10 to 100 nM on SIK1 and 0.01 to 10 nM on SIK2.

On to `COc1cc(-c2cnc3cc(OCCN4CCOCC4)ccn23)cc(C)c1C(=O)NC1CC1` [compound 222, N-cyclopropyl-2-methoxy-6-methyl-4-[7-(2-morpholinoethoxy)imidazo[1,2-a]pyridin-3-yl]benzamide], for which the IC50 is 10 to 100 nM at SIK3, above 500 nM against SIK1 and 100 to 500 nM on SIK2.

On to `COc1ccn2c(-c3cc4c(c(OC)c3)C(=O)N(CC(F)(F)F)CC4)cnc2c1` [Cpd 256, 8-methoxy-6-(7-methoxyimidazo[1,2-a]pyridin-3-yl)-2-(2,2,2-trifluoroethyl)-3,4-dihydroisoquinolin-1-one], for which the IC50 on SIK3 was 10 to 100 nM; against SIK1, 100 to 500 nM; on SIK2, 10 to 100 nM.

As to `COc1cc(-c2cnc3cc(OCCOCCO)ccn23)cc(OC(F)F)c1C(=O)NC1CC1` [compound 73], the half-inhibitory concentration (IC50) is 0.01 to 10 nM against SIK3, 10 to 100 nM against SIK1 and 0.01 to 10 nM against SIK2.

`COc1cc(-c2cnc3cc(OCc4cccnn4)ccn23)cc(OC(F)F)c1C(=O)NC1CC1` [compound 226, N-cyclopropyl-2-(difluoromethoxy)-6-methoxy-4-[7-(pyridazin-3-ylmethoxy)imidazo[1,2-a]pyridin-3-yl]benzamide]: the IC50 at SIK3 fell in the range of 0.01 to 10 nM; at SIK1, 10 to 100 nM; against SIK2, 0.01 to 10 nM.

With `CCOc1cc(-c2cnc3cc(OCCN(C)C)ccn23)cc2c1C(=O)N(CC(F)(F)F)CC2` [compound 140, 6-[7-[2-(dimethylamino)ethoxy]imidazo[1,2-a]pyridin-3-yl]-8-ethoxy-2-(2,2,2-trifluoroethyl)-3,4-dihydroisoquinolin-1-one], the IC50 is 100 to 500 nM on SIK3, above 500 nM on SIK1 and 10 to 100 nM against SIK2.

With `COc1cc(-c2cnc3cc(OCCN(C)CC(F)F)ccn23)cc(OC(F)F)c1C(=O)NC1CC1` [compound 236, N-cyclopropyl-4-[7-[2-[2,2-difluoroethyl(methyl)amino]ethoxy]imidazo[1,2-a]pyridin-3-yl]-2-(difluoromethoxy)-6-methoxy-benzamide], the 50% inhibitory concentration (IC50) against SIK3 lay in the range of 0.01 to 10 nM; against SIK1 it was 10 to 100 nM; at SIK2, 0.01 to 10 nM.

For the molecule `CNC1CC(Oc2ccn3c(-c4cc(OC)c(C(=O)NC5CC5)c(OC(F)F)c4)cnc3c2)C1` (stereo not drawn) [compound 161, N-cyclopropyl-2-(difluoromethoxy)-6-methoxy-4-[7-[3-(methylamino)cyclobutoxy]imidazo[1,2-a]pyridin-3-yl]benzamide], the IC50 against SIK3 is 0.01 to 10 nM; on SIK1 it was 10 to 100 nM; against SIK2, 0.01 to 10 nM.

For `COC(=O)C1(COc2ccn3c(-c4cc(OC)c(C(=O)NC5CC5)c(OC(F)F)c4)cnc3c2)CC1` [compound 57, methyl 1-[[3-[4-(cyclopropylcarbamoyl)-3-(difluoromethoxy)-5-methoxy-phenyl]imidazo[1,2-a]pyridin-7-yl]oxymethyl] cyclopropanecarboxylate], the results for the IC50 against SIK3, against SIK1 and on SIK2 were 0.01 to 10 nM, 10 to 100 nM and 0.01 to 10 nM, respectively.

In the case of `CCOc1ccn2c(-c3cc4c(c(OC)c3)C(=O)N(CC(F)(F)F)CC4)cnc2c1` [Cpd 264, 6-(7-ethoxyimidazo[1,2-a]pyridin-3-yl)-8-methoxy-2-(2,2,2-trifluoroethyl)-3,4-dihydroisoquinolin-1-one], the half-maximal inhibitory concentration (IC50) on SIK3 lay within 0.01 to 10 nM; on SIK1 it was 100 to 500 nM; against SIK2, 10 to 100 nM.

Regarding `COc1cc(-c2cnc3cc(OC[C@H]4CCCN(CCO)C4)ccn23)cc(OC(F)F)c1C(=O)NC1CC1` [Cpd 340, N-cyclopropyl-2-(difluoromethoxy)-4-[7-[[(3S)-1-(2-hydroxyethyl)-3-piperidyl]methoxy]imidazo [1,2-a]pyridin-3-yl]-6-methoxy-benzamide], the concentration for half-maximal inhibition (IC50) at SIK3 was in the range of 0.01 to 10 nM; against SIK1 it was 10 to 100 nM; against SIK2, 0.01 to 10 nM.

As to `COCCOCCOc1ccn2c(-c3cc(OC)c(C(=O)NC4CC4)c(OC(F)F)c3)cnc2c1` [compound 38, N-cyclopropyl-2-(difluoromethoxy)-6-methoxy-4-[7-[2-(2-methoxyethoxy)ethoxy]imidazo[1,2-a]pyridin-3-yl]benzamide], the figures for the IC50 at SIK3, at SIK1 and against SIK2 were 0.01 to 10 nM, 10 to 100 nM and 0.01 to 10 nM, respectively.

Consider `CN(C)CCOc1ccn2c(-c3cc(F)c(C(=O)NCC(F)(F)F)c(OC(F)F)c3)cnc2c1` [compound 155, 2-(difluoromethoxy)-4-[7-[2-(dimethylamino)ethoxy]imidazo[1,2-a]pyridin-3-yl]-6-fluoro-N-(2,2,2-trifluoroethyl)benzamide], for which the IC50 against SIK3 was 10 to 100 nM; against SIK1, above 500 nM; at SIK2 it was 10 to 100 nM.

For the molecule `COc1cc(-c2cnc3cc(OCC(N)C4CCCO4)ccn23)cc(OC(F)F)c1C(=O)NC1CC1` (stereo not drawn) [compound 136, 4-[7-(2-amino-2-tetrahydrofuran-2-yl-ethoxy)imidazo[1,2-a]pyridin-3-yl]-N-cyclopropyl-2-(difluoromethoxy)-6-methoxy-benzamide], the figures for the IC50 against SIK3, against SIK1 and against SIK2 were 0.01 to 10 nM, 10 to 100 nM and 0.01 to 10 nM, respectively.
